Activity calls are given as the source filed them.
Columns and labels:
[1] = target: Palmitoyl-protein thioesterase ABHD10, mitochondrial (Mus musculus, UniProt Q6PE15); assay: Late stage assay provider results from the probe development effort to identify inhibitors of PME-1: fluorescence-based dose response biochemical gel-based competitive Activity-Based Protein Profiling (ABPP) inhibition of ABHD10 Set 2.; format: functional
[2] = target: T1, Apoptotic protease-activating factor 1 (Homo sapiens, UniProt O14727); format: functional
T1 sequence (O14727 whole entry): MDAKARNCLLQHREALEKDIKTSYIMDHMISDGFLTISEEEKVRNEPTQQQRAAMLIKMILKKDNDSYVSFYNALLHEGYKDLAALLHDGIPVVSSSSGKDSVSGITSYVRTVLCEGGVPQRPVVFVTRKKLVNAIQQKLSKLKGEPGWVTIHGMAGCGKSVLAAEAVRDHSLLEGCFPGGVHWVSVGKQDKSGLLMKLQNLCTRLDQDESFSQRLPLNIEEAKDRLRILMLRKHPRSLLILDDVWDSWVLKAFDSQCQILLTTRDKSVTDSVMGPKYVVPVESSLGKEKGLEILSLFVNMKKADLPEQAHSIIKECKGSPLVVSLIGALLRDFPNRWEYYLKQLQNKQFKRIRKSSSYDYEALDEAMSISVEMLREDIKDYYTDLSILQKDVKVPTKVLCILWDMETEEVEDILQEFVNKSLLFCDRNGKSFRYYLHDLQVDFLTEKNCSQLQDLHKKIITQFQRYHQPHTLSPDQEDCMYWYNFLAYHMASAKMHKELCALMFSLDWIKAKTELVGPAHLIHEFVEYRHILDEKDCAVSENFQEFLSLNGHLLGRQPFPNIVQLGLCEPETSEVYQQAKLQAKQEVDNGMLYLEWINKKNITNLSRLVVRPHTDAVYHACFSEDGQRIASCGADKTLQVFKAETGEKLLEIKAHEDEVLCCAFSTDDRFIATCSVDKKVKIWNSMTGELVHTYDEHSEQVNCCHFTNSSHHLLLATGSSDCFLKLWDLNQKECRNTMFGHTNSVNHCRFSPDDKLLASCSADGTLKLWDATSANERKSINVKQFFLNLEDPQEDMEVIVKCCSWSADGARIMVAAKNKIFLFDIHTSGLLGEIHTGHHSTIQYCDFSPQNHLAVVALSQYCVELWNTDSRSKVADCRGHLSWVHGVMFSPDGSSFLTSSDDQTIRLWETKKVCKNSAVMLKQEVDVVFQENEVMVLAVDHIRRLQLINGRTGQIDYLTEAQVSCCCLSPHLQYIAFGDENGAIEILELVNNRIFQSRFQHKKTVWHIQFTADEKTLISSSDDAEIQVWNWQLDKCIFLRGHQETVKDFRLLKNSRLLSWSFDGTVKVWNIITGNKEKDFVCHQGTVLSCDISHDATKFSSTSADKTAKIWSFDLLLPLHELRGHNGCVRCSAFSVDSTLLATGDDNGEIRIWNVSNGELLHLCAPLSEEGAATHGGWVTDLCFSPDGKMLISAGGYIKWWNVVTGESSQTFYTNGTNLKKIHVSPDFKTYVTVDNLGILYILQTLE

[3] = target: T2, Protein RecA (Mycobacterium tuberculosis, UniProt P9WHJ3); assay: Fluorescence Cell-Free Homogeneous Dose Retest to Identify Inhibitors of RecA-Intein Splicing Activity. [Related pubchem assays (depositor defined):AID2097, AID2223, AID489010, AID492950]; format: functional
T2 sequence (P9WHJ3 whole entry): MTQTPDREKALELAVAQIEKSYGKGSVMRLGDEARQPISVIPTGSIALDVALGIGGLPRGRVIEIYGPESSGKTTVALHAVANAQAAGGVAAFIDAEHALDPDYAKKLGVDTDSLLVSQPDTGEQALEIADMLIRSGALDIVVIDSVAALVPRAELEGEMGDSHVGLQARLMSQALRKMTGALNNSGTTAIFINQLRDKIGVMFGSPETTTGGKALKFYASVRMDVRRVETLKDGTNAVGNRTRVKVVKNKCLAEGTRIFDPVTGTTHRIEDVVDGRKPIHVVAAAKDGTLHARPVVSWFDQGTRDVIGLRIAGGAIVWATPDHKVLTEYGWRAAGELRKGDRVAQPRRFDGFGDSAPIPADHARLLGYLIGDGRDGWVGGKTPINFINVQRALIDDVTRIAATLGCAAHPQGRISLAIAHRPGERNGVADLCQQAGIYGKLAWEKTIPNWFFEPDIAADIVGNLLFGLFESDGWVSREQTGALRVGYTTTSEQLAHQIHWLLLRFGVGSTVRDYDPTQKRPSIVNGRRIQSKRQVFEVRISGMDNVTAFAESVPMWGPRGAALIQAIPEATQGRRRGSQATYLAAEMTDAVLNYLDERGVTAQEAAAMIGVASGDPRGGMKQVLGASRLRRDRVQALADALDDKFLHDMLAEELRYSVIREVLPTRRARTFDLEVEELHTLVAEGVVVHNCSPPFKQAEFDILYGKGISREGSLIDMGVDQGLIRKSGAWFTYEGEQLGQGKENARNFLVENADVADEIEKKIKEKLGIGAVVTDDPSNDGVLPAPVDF

[4] = target: T3, Replicative DNA helicase DnaB (Mycobacterium tuberculosis, UniProt P9WMR3); assay: DnaB intein splicing inhibitors, dose response, biochemical, cell-free fluorescence (AID 449749); format: functional
T3 sequence (P9WMR3 whole entry): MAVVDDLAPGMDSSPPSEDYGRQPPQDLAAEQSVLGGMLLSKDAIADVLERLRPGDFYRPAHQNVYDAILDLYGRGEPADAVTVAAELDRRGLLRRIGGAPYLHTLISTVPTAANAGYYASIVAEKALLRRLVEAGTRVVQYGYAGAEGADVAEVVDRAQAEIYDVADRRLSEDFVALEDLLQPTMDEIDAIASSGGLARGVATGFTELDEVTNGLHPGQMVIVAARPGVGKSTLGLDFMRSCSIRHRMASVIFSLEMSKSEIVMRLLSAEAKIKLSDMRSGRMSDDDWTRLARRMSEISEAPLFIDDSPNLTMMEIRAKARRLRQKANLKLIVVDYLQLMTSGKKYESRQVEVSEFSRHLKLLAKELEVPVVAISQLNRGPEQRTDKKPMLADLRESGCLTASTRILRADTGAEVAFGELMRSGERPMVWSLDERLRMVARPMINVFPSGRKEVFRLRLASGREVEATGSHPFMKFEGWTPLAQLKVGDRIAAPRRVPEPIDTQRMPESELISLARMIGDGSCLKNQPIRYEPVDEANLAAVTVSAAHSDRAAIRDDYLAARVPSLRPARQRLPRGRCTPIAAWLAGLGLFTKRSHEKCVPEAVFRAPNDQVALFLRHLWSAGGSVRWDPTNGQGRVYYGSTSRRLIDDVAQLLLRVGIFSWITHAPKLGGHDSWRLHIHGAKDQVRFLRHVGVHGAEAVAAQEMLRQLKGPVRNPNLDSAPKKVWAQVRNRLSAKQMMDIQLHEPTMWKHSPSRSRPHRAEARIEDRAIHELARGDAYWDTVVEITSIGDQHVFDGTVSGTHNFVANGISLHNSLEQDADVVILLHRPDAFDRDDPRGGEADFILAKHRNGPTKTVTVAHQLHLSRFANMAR

[5] = AlphaScreen signal interference compounds, dose response, artefact control for ARNT-TACC3 interaction inhibitor project, biochemical, luminescence, cherry-pick (AID 651705); format: functional;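 further: AlphaScreen bead proximity signal that flags compounds interfering with the detection technology; potency reflects signal decrease which marks the compound as an assay artifact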
[6] = system: Streptococcus; assay: Group A Streptococcus viability loss, dose response, counter-screen for streptokinase expression inhibitor project, luminescence, BacTiterGlo (AID 1915); format: functional, organism-based;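 further: potency for reduction of bacterial viability or growth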
[7] = system: INS1; assay: beta cell apoptosis inhibitors, cytokine rescue, dose response, luminescence, retest (AID 449756); format: functional, cell-based; settings: Rattus norvegicus;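 further: cell death triggered by IL-1 beta plus TNF-alpha plus IFN-gamma mixture; protective hits raise ATP signal compared with cytokine alone wells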
[8] = system: Streptococcus sp. 'group A'; assay: growth inhibition of control SK(-) GAS strain, dose response, counter-screen for streptokinase expression inhibitor project, luminescence, kanamycin, BacTiterGlo, confirmation (AID 1900); format: functional, organism-based
[9] = target: Hepatocyte nuclear factor 4-alpha (Homo sapiens, UniProt P41235); format: functional, cell-based;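 further: biochemical luminescence-based dose-response counterscreen measuring inhibition of HNF4 dimerization, run alongside a screen for blockers of ABHD5–perilipin-5 interaction; split luciferase complementation of HNF4 fusion proteins in cell lysate measuring dimerization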
Sequence of Hepatocyte nuclear factor 4-alpha (P41235 whole entry, the tested form may be a part): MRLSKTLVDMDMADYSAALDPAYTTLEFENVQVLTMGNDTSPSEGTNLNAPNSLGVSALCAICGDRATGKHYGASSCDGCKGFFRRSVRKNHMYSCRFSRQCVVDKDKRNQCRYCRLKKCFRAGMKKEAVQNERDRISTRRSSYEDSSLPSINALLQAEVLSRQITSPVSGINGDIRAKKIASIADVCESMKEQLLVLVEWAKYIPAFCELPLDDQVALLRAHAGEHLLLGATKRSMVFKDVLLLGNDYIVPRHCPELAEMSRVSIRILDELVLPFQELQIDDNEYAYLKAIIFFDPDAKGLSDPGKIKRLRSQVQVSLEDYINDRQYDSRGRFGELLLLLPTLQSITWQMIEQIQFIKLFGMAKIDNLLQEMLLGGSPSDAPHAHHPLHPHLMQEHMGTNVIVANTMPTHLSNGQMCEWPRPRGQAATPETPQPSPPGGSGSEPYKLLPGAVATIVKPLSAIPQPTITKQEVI

[10] = target: Heat shock protein HSP 90-alpha (Homo sapiens, UniProt P07900); format: functional, organism-based
[11] = target: Steroidogenic factor 1 (Homo sapiens, UniProt Q13285); assay: Counterscreen for inverse agonists of the liver receptor homolog-1 (LRH-1; NR5A2): Luminescence-based cell-based high throughput dose response assay to identify inverse agonists of the Steroidogenic Factor 1 Nuclear Receptor (SF1; NR5A1).; format: functional
Sequence of Steroidogenic factor 1 (Q13285 whole entry): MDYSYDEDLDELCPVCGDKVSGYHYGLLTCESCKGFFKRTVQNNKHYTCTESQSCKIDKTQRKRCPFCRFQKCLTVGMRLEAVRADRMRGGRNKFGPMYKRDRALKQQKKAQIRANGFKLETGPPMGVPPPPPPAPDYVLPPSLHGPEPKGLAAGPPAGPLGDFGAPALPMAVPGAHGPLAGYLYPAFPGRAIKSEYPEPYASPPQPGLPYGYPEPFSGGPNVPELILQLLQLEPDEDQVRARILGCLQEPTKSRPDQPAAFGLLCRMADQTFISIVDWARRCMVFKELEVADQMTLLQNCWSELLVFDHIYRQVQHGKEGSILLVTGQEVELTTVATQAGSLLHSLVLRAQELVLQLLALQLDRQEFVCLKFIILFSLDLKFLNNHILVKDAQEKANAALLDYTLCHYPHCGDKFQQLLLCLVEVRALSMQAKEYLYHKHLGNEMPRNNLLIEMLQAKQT

[12] = StAR promoter reporter inhibition counter-screen, dose response, counter-screen for LRH-1 inverse agonist project, cell-based, luminescence, luciferase reporter (AID 651969); format: functional
[13] = target: Nuclear receptor subfamily 5 group A member 2 (Homo sapiens, UniProt O00482); format: functional, cell-based;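 further: HEK293T cells transfected with LRH-1 and a StAR promoter luciferase reporter; potency for inhibitors that lower LRH-1 driven reporter light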
Sequence of Nuclear receptor subfamily 5 group A member 2 (O00482 whole entry): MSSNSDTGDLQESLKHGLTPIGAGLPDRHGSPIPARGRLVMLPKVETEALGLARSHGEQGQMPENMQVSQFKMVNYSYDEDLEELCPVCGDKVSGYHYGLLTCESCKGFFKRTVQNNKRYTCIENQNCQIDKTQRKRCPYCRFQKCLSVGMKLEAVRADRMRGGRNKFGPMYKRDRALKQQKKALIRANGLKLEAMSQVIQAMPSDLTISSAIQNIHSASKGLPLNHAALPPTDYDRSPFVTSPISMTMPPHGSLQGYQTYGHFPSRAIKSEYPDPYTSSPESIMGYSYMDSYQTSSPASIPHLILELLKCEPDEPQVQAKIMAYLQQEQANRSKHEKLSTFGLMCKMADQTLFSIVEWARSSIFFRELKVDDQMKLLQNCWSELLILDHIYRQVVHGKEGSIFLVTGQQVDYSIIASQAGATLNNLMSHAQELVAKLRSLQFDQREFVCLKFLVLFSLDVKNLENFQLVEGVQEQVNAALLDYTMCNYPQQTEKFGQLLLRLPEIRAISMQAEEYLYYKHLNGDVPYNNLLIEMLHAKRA

[14] = target: T4, Sentrin-specific protease 1 (Homo sapiens, UniProt Q9P0U3); assay: potency of human SENP1 inhibitors, dose response, biochemical, kinetic FRET (AID 651697); format: functional; settings: read-out: IC50_Mean
T4 sequence (Q9P0U3 whole entry, the tested form may be a part): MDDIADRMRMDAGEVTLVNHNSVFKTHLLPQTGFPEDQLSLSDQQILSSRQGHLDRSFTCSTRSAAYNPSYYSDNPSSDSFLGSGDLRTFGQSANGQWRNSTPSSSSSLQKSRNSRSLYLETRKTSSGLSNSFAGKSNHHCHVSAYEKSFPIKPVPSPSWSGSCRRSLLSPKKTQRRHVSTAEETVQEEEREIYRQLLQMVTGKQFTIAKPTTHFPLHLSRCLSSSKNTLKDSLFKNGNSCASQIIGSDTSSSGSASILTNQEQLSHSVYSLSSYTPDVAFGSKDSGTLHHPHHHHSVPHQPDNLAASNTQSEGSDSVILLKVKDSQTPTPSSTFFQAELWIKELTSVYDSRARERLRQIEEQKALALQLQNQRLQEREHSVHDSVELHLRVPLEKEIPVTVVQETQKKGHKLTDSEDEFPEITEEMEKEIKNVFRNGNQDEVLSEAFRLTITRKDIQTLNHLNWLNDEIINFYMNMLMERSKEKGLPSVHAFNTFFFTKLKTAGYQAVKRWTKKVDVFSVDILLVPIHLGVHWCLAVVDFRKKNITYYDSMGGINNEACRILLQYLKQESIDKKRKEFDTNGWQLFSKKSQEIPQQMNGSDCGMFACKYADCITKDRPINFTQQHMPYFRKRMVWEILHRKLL

[15] = target: T4, Sentrin-specific protease 1; assay: Dose response confirmation of small molecule inhibitors of the catalytic domain of the SUMO protease, SENP1 in a FRET assay.; format: functional; settings: read-out: IC50_Mean
[16] = target: DNA repair and recombination protein RAD54-like (Homo sapiens, UniProt Q92698); assay: inhibitors of human RAD54 branch migration, confirmation, biochemical, fluorescence, cherry-picked samples, dose series (AID 651657); format: functional
Sequence of DNA repair and recombination protein RAD54-like (Q92698 whole entry): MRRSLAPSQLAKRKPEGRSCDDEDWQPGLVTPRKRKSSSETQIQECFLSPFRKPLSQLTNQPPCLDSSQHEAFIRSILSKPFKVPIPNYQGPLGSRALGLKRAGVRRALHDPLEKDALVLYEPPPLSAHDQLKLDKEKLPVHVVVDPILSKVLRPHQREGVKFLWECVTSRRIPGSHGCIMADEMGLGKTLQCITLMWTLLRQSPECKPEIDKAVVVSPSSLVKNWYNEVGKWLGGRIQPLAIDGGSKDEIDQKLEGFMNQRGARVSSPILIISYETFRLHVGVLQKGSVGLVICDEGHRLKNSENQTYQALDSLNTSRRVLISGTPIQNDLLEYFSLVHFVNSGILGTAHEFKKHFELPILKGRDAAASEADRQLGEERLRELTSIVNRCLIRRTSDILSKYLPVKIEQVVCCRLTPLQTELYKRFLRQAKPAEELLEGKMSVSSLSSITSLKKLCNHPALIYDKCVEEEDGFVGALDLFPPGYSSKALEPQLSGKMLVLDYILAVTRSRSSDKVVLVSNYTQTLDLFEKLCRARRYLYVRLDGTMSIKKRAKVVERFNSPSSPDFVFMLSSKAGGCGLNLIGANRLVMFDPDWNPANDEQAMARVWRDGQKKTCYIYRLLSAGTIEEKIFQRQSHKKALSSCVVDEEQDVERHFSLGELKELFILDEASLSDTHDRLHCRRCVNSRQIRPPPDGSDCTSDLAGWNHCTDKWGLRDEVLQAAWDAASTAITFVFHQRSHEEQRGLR

[17] = target: T5, DNA repair protein RAD52 homolog (Homo sapiens, UniProt P43351); format: functional, biochemical
T5 sequence (P43351 whole entry): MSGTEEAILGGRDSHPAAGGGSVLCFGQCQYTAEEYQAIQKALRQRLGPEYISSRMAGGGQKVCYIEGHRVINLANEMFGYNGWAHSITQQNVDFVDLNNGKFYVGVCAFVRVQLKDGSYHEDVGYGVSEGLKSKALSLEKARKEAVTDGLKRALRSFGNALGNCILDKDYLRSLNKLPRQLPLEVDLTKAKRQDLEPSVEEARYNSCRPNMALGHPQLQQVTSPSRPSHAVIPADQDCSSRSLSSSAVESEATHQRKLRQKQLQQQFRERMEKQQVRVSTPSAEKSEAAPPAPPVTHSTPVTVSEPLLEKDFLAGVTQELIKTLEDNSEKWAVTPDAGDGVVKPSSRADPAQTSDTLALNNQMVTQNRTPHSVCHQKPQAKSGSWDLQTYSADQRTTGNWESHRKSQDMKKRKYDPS

[18] = Luminescence Cell-Based Dose Confirmation HTS to Identify Inhibitors of Polyadenylation.; format: functional
[19] = cytotoxicity toward NIH3T3 fibroblasts, dose response, counter-screen, cell-based, ATP luminescence, mouse fibroblasts (AID 2010); format: functional;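 further: cells exposed to compound for about 90 hours before reading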
[20] = inhibitors of intracellular T. cruzi replication, confirmation, NIH3T3 host cells, beta-gal luminescence (AID 2044); format: functional, cell-based;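 further: intracellular parasites grown in NIH/3T3 mouse fibroblasts as host cells; luminescent beta-galactosidase reporter signal from transgenic T. cruzi replicating inside host cells; inhibitors lower the luminescence signal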
[21] = Fluorescence-based cell-based high throughput dose response assay for inhibitors of the interaction of nucleotide-binding oligomerization domain containing 2 (NOD2) and the receptor-interacting serine-threonine kinase 2 (RIPK2).; format: functional; settings: Homo sapiens
[22] = target: T6, Mitochondrial peptide methionine sulfoxide reductase (Bos taurus, UniProt P54149); format: functional;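 further: absorbance read-out, biochemical high-throughput dose-response screen for MsrA inhibitors, confirmatory; recombinant bovine MsrA coupled to E. coli TrxB with NADPH and selenocystamine; potency is for inhibitors of MsrA activity on DMSO substrate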
T6 sequence (P54149 whole entry): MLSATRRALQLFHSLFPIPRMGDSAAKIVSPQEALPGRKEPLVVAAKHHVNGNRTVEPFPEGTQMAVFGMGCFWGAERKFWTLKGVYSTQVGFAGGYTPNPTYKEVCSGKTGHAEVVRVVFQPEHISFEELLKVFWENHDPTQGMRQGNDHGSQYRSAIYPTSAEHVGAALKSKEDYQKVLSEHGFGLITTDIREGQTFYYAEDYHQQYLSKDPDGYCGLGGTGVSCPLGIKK

Sequence of Palmitoyl-protein thioesterase ABHD10, mitochondrial (Q6PE15 whole entry): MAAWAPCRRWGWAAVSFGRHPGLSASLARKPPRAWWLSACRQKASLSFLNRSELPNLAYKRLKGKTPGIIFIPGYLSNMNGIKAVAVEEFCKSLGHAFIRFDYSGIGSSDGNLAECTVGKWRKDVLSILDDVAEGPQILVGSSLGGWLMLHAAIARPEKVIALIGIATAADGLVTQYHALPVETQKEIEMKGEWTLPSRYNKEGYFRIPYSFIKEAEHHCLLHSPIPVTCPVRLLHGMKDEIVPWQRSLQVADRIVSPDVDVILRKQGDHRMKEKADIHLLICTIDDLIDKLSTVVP

CCOC(=O)N1C(=O)[C@@](CC)(c2cccc(C)c2)N1C(=O)OCC
IC50 [1]: 0.06 µM (active)

Cc1[nH]n(-c2ccccc2)c(=O)c1/C=N\NC(=O)C1COc2ccccc2O1 (configuration not stated)
IC50 [2]: 8.83 µM (active) | EC50 [3]: 17.5 µM (active) | AC50 [4]: 40.9 µM (active) | AC50 [5]: 104 µM (active) | EC50 [6]: 8.94 µM (active) | AC50 [7]: 5.03 µM (active) | EC50 [8]: 1.36 µM (active)

CC1=CC2C(C(O)CC3(C)C2CC(C)C32OCOC23COCO3)C2(C)CC(C=O)=C(O)C=C12 (configuration not stated)
IC50 [9]: 11 µM (inactive) | AC50 [10]: 4.34 µM (active)

COc1ccc(OC)c(NC(=O)c2ccccc2NC(=O)c2ccco2)c1
IC50 [11]: 11.4 µM (inactive) | IC50 [12]: 35.9 µM (inactive) | IC50 [13]: 24 µM (inactive)

O=C1c2cc(CO)cc(O)c2C(=O)c2c(O[C@@H]3OC(CO)[C@@H](O)[C@@H](O)[C@@H]3O)cccc21 (some centres not stated)
IC50 [14]: 22.1 µM (inactive) | IC50 [15]: 17.4 µM (active)

COc1ccc(OC)c(Nc2nc(NCCO)c3ccccc3n2)c1
AC50 [16]: 11.6 µM (active) | AC50 [17]: 4.32 µM (active) | EC50 [18]: > 120 µM (not active) | EC50 [19]: > 30 µM (not active) | EC50 [20]: 2.1 µM (active)

Cn1cnc([N+](=O)[O-])c1S(=O)(=O)Oc1ccc(Cl)cc1
IC50 [21]: 4.09 µM (active) | IC50 [22]: 42.8 µM (inactive)

From ChEMBL document CHEMBL1201862, “PubChem BioAssay data set” (2004)
